Calls of active or inactive are those of the source. The rule behind the calls is not given here.
Columns and labels:
[1] = molecular target: T1, Acetylcholinesterase (Homo sapiens, UniProt P22303); assay: Inhibition of human erythrocyte AChE after 5 mins by Ellman's method
[2] = molecular target: Cholinesterase (Homo sapiens, UniProt P06276); assay: Inhibition of human plasma BChE after 5 mins by Ellman's method; assay type: cell-free
[3] = molecular target: T1, Acetylcholinesterase; assay: Inhibition of human erythrocyte AChE after 5 mins by noncompetitive Lineweaver-Burke plot analysis
[4] = molecular target: T1, Acetylcholinesterase; assay: Inhibition of human erythrocyte AChE after 5 mins by noncompetitive Lineweaver-Burke plot analysis for enzyme-inhibitor complex
[5] = molecular target: T1, Acetylcholinesterase; assay: Inhibition of human erythrocyte AChE at 0.0000001 mM to 1 mM after 5 mins by Ellman's method

T1 sequence (P22303 whole entry): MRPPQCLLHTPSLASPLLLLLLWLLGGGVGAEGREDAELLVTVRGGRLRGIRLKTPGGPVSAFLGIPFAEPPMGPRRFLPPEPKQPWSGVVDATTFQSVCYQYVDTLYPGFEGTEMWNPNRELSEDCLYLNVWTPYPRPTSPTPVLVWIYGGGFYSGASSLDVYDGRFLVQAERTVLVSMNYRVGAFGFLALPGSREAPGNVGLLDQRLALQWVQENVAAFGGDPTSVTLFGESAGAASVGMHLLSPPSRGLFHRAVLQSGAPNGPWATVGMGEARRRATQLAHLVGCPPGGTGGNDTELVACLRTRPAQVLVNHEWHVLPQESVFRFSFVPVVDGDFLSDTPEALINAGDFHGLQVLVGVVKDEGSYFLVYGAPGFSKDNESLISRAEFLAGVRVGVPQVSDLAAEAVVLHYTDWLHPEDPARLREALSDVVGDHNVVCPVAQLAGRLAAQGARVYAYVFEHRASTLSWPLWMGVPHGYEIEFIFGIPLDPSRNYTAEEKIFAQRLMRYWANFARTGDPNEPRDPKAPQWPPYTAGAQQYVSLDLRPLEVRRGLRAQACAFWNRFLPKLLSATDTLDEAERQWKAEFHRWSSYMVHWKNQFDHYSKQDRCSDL
Cholinesterase, sequence (P06276 whole entry): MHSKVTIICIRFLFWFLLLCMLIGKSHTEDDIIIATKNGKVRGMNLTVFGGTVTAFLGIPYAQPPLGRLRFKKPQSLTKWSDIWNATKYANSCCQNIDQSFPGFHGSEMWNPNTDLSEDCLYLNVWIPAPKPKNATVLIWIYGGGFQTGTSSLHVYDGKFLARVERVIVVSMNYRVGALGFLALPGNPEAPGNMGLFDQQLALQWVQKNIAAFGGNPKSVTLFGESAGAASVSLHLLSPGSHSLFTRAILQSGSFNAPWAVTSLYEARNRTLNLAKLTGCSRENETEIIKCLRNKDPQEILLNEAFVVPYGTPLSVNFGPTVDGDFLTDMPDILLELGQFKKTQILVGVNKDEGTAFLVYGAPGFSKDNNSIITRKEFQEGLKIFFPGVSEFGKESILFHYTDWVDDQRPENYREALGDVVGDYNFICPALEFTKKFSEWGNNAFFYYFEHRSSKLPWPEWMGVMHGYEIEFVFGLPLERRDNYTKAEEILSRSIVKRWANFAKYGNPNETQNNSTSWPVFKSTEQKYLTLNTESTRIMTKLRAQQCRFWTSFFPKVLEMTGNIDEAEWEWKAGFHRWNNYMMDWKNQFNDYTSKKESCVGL

SMILES	IC50 [1]	IC50 [2]	Ki [3]	Ki [4]	inhibition [5]
c1cc[n+](CCCCCCCCCCC[n+]2ccccc2)cc1	0.7 µM	7 µM	0.03 µM	0.02 µM	
c1cc[n+](CCOCC[n+]2ccccc2)cc1	2010 µM	2360 µM			
c1cc[n+](CCCC[n+]2ccccc2)cc1	505 µM	9800 µM			
c1cc[n+](CCCCCCCCC[n+]2ccccc2)cc1	2 µM	6 µM			
C(=C/C[n+]1ccccc1)/C[n+]1ccccc1	1990 µM	1270 µM			
c1cc[n+](CCCCCCC[n+]2ccccc2)cc1	241 µM	78 µM			
c1cc[n+](Cc2ccc3ccc(C[n+]4ccccc4)cc3c2)cc1	0.2 µM	0.8 µM	0.14 µM	0.14 µM	
c1cc[n+](CCCCCC[n+]2ccccc2)cc1	63 µM	130 µM			
c1cc[n+](CCC[n+]2ccccc2)cc1					inactive
c1cc[n+](CCCCC[n+]2ccccc2)cc1	1270 µM	120 µM			
c1cc[n+](C[n+]2ccccc2)cc1					inactive
c1cc[n+](CC[n+]2ccccc2)cc1					inactive
C(=C\C[n+]1ccccc1)/C[n+]1ccccc1	2290 µM	541 µM			
CN(C)C(=O)Oc1cccc([N+](C)(C)C)c1 [NEOSTIGMINE BROMIDE]		0.8 µM			
c1cc[n+](Cc2cccc(C[n+]3ccccc3)c2)cc1	2360 µM	1380 µM			
c1cc[n+](COC[n+]2ccccc2)cc1	1770 µM	583 µM			
c1cc[n+](CCCCCCCCCCCC[n+]2ccccc2)cc1					inactive
c1cc[n+](CCCCCCCC[n+]2ccccc2)cc1	31 µM	29 µM			
c1cc[n+](Cc2ccc(C[n+]3ccccc3)cc2)cc1	1540 µM	529 µM			
c1cc[n+](Cc2ccccc2C[n+]2ccccc2)cc1	636 µM	345 µM			

From ChEMBL document CHEMBL1154957, “Preparation and in vitro screening of symmetrical bispyridinium cholinesterase inhibitors bearing different connecting linkage-initial study for Myasthenia gravis implications” (Bioorg Med Chem Lett, 2010)
